What was measured:
TGFα mice [1] = assay: Short-term naltrexone therapy in TGFα-induced pulmonary fibrosis: total lung RNA gene expression; type: in vivo; details: 10 mg/kg or 50 mg/kg b.i.d. for one week, started after two weeks on Dox; vs vehicle
Protocol: FIG. 6: Naltrexone therapy attenuates ECM and proliferative gene expression in pulmonary fibrosis. (A) Experimental schemata of naltrexone therapy study in vivo. Three groups of mice on Dox for two weeks were treated with either vehicle or naltrexone (10 mg/kg or 50mg/kg bodyweight, b.i.d) and sacrificed after a week of treatment while continued on Dox. Total lung RNA was analyzed for the expression of: (B) ECM genes (FN1, Col5α, and Col6α) and (C) proliferation genes (Aurka, IL-6, and Calcb). One-Way ANOVA (N=4/group; *P<0.05).
(§1) To probe mechanisms of EGFR-mediated lung remodeling, we generated transgenic mice in which TGFα was conditionally overexpressed in the lung epithelium using the CCSP rtTA promoter. When doxycycline (Dox) was administered, overexpression of TGFα in the adult mice (N=4−5 mice/group) caused progressive and extensive adventitial, interstitial, and subpleural fibrosis. Several histological features of fibrosis in the TGFα model were found in the pathologic lesions of IPF, including subpleural fibrosis radiating into the adjoining interstitium and the differentiation of myofibroblasts (FIG. 3). Physiologically, the mice developed progressive cachexia and lung-function decline with gene expression profiles similar to human IPF. The proenkephalin A (PENK) gene that codes for several opioid peptides was elevated in fibrotic lungs during TGFα-induced pulmonary fibrosis (FIG. 4).
Naltrexone therapy attenuates ECM and proliferative gene expression in pulmonary fibrosis. […] Three groups of mice (N=4 mice/group) on Dox for two weeks were treated with either vehicle or naltrexone (10 mg/kg or 50 mg/kg bodyweight, b.i.d) and sacrificed after a week of treatment while continued on Dox. The down arrow represents initiation of the vehicle or drug treatment (at two weeks on Dox) and the horizontal arrows indicate the duration of vehicle or drug treatment (one week while continuing to administer Dox). […] The RNA from the three ECM genes decreased when treated with naltrexone. […] The RNA from the three proliferation genes decreased when treated with naltrexone.

IPF fibroblasts = assay: Gene expression in primary fibroblasts isolated from fibrotic lesions of IPF lungs; type: cell-based, human; details: naltrexone 10 μM, 24 hrs, vs vehicle
Protocol: FIG. 10: Naltrexone treatment attenuates ECM and proliferation gene expression in IPF fibroblasts. Expression of ECM genes (FN1, Col3α, and αSMA) and proliferation gene (Aurka) was attenuated in IPF fibroblasts treated with naltrexone (10 μM) compared to vehicle treatment for 24 hrs in IPF fibroblasts. Unpaired t-test (N=3/group; *P<0.05).
We treated primary fibroblasts isolated from fibrotic lesions of IPF lungs. […] These findings are consistent with a mechanism of action for opioid receptor inhibitors (e.g., naltrexone) that influences (e.g., decreases) ECM and proliferation.

TGFα mice [2] = assay: Naltrexone therapy in TGFα-induced pulmonary fibrosis: body weight, lung weight, lung function (FlexiVent); type: in vivo; details: 80 mg/kg b.i.d. for three weeks, started after three weeks on Dox, vs vehicle
Protocol: (§2) FIG. 7: Naltrexone therapy attenuates body weight loss in pulmonary fibrosis. (A) Experimental schemata of naltrexone therapy study in vivo. Three groups of mice on Dox for three weeks were treated with either vehicle or naltrexone (80 mg/kg bodyweight, b.i.d) and then sacrificed after three weeks of treatment while continued on Dox. (B) The loss of body weight was attenuated with naltrexone therapy compared to vehicle treatment in TGFα mice. One-Way ANOVA (N=4−6/group; *P<0.05).
as §2, with “8:” for “7:”, “increase in lung weights” for “body weight loss”, “fibrosis.” for “fibrosis. (A) Experimental schemata of naltrexone therapy study in vivo.”, “Dox.” for “Dox. (B)”, “increase in lung weights” for “loss of body weight”
FIG. 9: Naltrexone therapy attenuates lung function decline in pulmonary fibrosis. Three groups of mice on Dox for three weeks were treated with either vehicle or naltrexone (80 mg/kg bodyweight, b.i.d) and then sacrificed after three weeks of treatment while continued on Dox. Decrease in the lung function (A,
Resistance; B, Compliance; C, Elastance) was attenuated with naltrexone therapy compared to vehicle treatment in TGFα mice. One-Way ANOVA (N=4−6/group; *P<0.05).
as §1
Naltrexone therapy attenuates body weight loss in pulmonary fibrosis. […] Three groups of mice (N=4−6 mice/group) were on Dox for three weeks, and were then treated with either vehicle or naltrexone (80 mg/kg bodyweight, b.i.d) along with Dox for another three weeks; six weeks after being on DOX and three weeks after being treated with vehicle or naltrexone, the mice were sacrificed. The down arrow represents initiation of the vehicle or naltrexone treatment and the horizontal arrows indicate the duration of the vehicle or naltrexone treatment (three weeks while continuing to administer Dox).
Naltrexone therapy attenuates increase in lung weights in pulmonary fibrosis. Mice (N=4−6 mice/group) were on Dox for three weeks, and were then treated with either vehicle or naltrexone (80 mg/kg bodyweight, b.i.d) along with Dox for another three weeks; six weeks after being on DOX and three weeks after being treated with vehicle or naltrexone, the mice were sacrificed (See, e.g., FIG. 7A). […] In TGFα mice, increases in lung weight are due to pulmonary fibrosis.
Naltrexone therapy attenuates lung function decline in pulmonary fibrosis. […]

[3] = treatment of idiopathic pulmonary fibrosis; cited from earlier work
mice = assay: Mouse model of bleomycin-induced pulmonary fibrosis (repetitive intradermal bleomycin); type: in vivo; details: bleomycin 6 units per kg intradermally, 5 days a week for 4 wks; vs saline-treated controls
Text: FIG. 5: Mouse model of bleomycin-induced pulmonary fibrosis. Masson's trichrome-stained lung sections show extensive collagen deposition in mice treated intradermally with bleomycin (6 U/kg body weight; 5 days/week for 4 weeks) (B) compared to saline (A).
We developed an alternative mouse model of bleomycin-induced pulmonary fibrosis. For these experiments, we injected mice (N=5 mice/group) intradermally with bleomycin (6 units per kg body weight) for 5 days in a week for a total of 4 wks.

For `O=C1CC[C@@]2(O)[C@H]3Cc4ccc(O)c5c4[C@@]2(CCN3CC2CC2)[C@H]1O5` [naltrexone, 17-(cyclopropylmethyl)-4,5α-epoxy-3,14-dihydroxymorphinan-6-one], which “Total lung RNA expression of ECM gene Collagen alpha 1 V (Col5α)” value (TGFα mice [1]) is on record?
Its value is “decreased”.

And the “Total lung RNA expression of ECM gene Collagen alpha 1 VI (Col6α)” value (TGFα mice [1])?
The value was “decreased”.

What about the “Total lung RNA expression of ECM gene Fibronectin (FN1)” value (TGFα mice [1]) of the same molecule?
Its value is “decreased”.

And the “Total lung RNA expression of proliferation gene Aurora kinase A (Aurka)” value (TGFα mice [1])?
The value was “decreased”.

What about the “Total lung RNA expression of proliferation gene Calcitonin Related Polypeptide Beta (Calcb)” value (TGFα mice [1]) of the same molecule?
Its value is “decreased”.

And the “Total lung RNA expression of proliferation gene Interleuken 6 (IL-6)” value (TGFα mice [1])?
Its value is “decreased”.

What about the “Expression of ECM gene alpha smooth-muscle actin (αSMA)” value (IPF fibroblasts) of the same molecule?
Its value is “inhibited”.

And the “Expression of ECM gene fibronectin 1 (FN1)” value (IPF fibroblasts)?
The value was “inhibited”.

What about the “Expression of ECM gene procollagen 3α1 (Col3α)” value (IPF fibroblasts) of the same molecule?
Its value is “inhibited”.

And the “Expression of proliferation gene Aurora kinase A (AURKA)” value (IPF fibroblasts)?
Its value is “inhibited”.

And the “Dox-induced changes in lung function: Compliance” value (TGFα mice [2]; FlexiVent)?
The value was “reversed”.

And the “Dox-induced changes in lung function: Elastance” value (TGFα mice [2]; FlexiVent)?
Its value is “reversed”.

What about the “Dox-induced changes in lung function: Resistance” value (TGFα mice [2]; FlexiVent) of the same molecule?
The value was “reversed”.

What about the “Increase in lung weights” value (TGFα mice [2]) of the same molecule?
Its value is “attenuated”.

And the “Loss of body weight” value (TGFα mice [2])?
The value was “attenuated”.

For `Cc1ccc(=O)n(-c2ccccc2)c1` [pirfenidone], which Effect on mortality [3] is on record?
The Effect on mortality was “neither pirfenidone nor nintedanib had any effect”.

What about the “Effect on respiratory symptoms” value [3] of the same molecule?
Its value is “no effect”.

With `COC(=O)c1ccc2c(c1)NC(=O)/C2=C(\Nc1ccc(N(C)C(=O)CN2CCN(C)CC2)cc1)c1ccccc1` [nintedanib] as the molecule, how does the Effect on mortality [3] read?
The Effect on mortality was “neither pirfenidone nor nintedanib had any effect”.

For bleomycin, which “Increase in airway resistance” value (mice) is on record?
Its value is “greater than two-fold”.

What about the “Increase in lung hydroxyproline levels” value (mice) of the same molecule?
The value was “greater than two-fold”.
